Data reported in ChEMBL document CHEMBL1201862, “PubChem BioAssay data set” (2004).
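In this assay, cells in 96-well plates receive the compound at five concentrations for 48 hours. Endpoints are linearly interpolated between the surrounding concentrations. GI50 marks 50% less growth.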 Calls of active or inactive are those of the source. No stated cut-off is given here; in the data, active = GI50 up to about 1.1 µM and inactive = higher.

Columns and labels:
Assay in all cases: DTP human tumour cell line panel, 48 h
[1] = test system: 786-0
[2] = test system: CCRF-CEM
[3] = test system: DU-145
[4] = test system: HCT-116
[5] = test system: HT-29
[6] = test system: LOX IMVI
[7] = test system: M14
[8] = test system: Malme-3M
[9] = test system: NCI-H23
[10] = test system: NCI-H460
[11] = test system: OVCAR-4
[12] = test system: OVCAR-8
[13] = test system: SF-295
[14] = test system: SK-MEL-28
[15] = test system: SK-MEL-2
[16] = test system: SK-OV-3
[17] = test system: SR
[18] = test system: T47D
[19] = test system: TK-10
[20] = test system: U-251

N=C(N)NNC(=O)C(=O)O
GI50 [1]: > 100 µM (inactive) | GI50 [2]: > 100 µM (inactive) | GI50 [3]: > 100 µM (inactive) | GI50 [4]: > 100 µM (inactive) | GI50 [5]: > 100 µM (inactive) | GI50 [6]: > 100 µM (inactive) | GI50 [7]: > 100 µM (inactive) | GI50 [8]: > 100 µM (inactive) | GI50 [9]: > 100 µM (inactive) | GI50 [10]: > 100 µM (inactive) | GI50 [11]: > 100 µM (inactive) | GI50 [12]: > 100 µM (inactive) | GI50 [13]: > 100 µM (inactive) | GI50 [14]: > 100 µM (inactive) | GI50 [15]: > 100 µM (inactive) | GI50 [16]: 55.1 µM (inactive) | GI50 [17]: > 100 µM (inactive) | GI50 [18]: > 100 µM (inactive) | GI50 [19]: > 100 µM (inactive) | GI50 [20]: > 100 µM (inactive)

COc1cc(C(c2cc3c(cc2O)OCO3)N2CCCCC2)cc(OC)c1OC (stereo not given)
GI50 [1]: 5.86 µM (inactive) | GI50 [2]: 1.85 µM (inactive) | GI50 [3]: 17.5 µM (inactive) | GI50 [4]: 15.4 µM (inactive) | GI50 [5]: 17 µM (inactive) | GI50 [6]: 14.8 µM (inactive) | GI50 [7]: 6.28 µM (inactive) | GI50 [8]: 12.8 µM (inactive) | GI50 [9]: 15.2 µM (inactive) | GI50 [10]: 21.8 µM (inactive) | GI50 [11]: 11.9 µM (inactive) | GI50 [12]: 13.2 µM (inactive) | GI50 [13]: 41.5 µM (inactive) | GI50 [14]: 16.7 µM (inactive) | GI50 [15]: 15.7 µM (inactive) | GI50 [16]: 22.2 µM (inactive) | GI50 [17]: 2.33 µM (inactive) | GI50 [18]: 22.4 µM (inactive) | GI50 [19]: 17 µM (inactive) | GI50 [20]: 15.8 µM (inactive)

Cc1ccc(C(=O)N2CCN(C(=O)c3ccc(C)cc3)c3ccccc32)cc1
GI50 [1]: 3.41 µM (inactive) | GI50 [2]: 1.6 µM (inactive) | GI50 [3]: 3.35 µM (inactive) | GI50 [4]: 3.04 µM (inactive) | GI50 [5]: 2.8 µM (inactive) | GI50 [6]: 6.44 µM (inactive) | GI50 [7]: 4.57 µM (inactive) | GI50 [8]: 2.84 µM (inactive) | GI50 [9]: 4.52 µM (inactive) | GI50 [10]: 4.14 µM (inactive) | GI50 [11]: 11.4 µM (inactive) | GI50 [12]: 6.25 µM (inactive) | GI50 [13]: 3.09 µM (inactive) | GI50 [14]: 5.2 µM (inactive) | GI50 [15]: 1.94 µM (inactive) | GI50 [16]: 2.89 µM (inactive) | GI50 [17]: 0.547 µM (active) | GI50 [18]: 6.43 µM (inactive) | GI50 [19]: 10 µM (inactive) | GI50 [20]: 1.9 µM (inactive)

CCOc1ccc(-n2c(=O)c3nn4c(=O)n(-c5ccc(OCC)cc5)c(=O)c4nn3c2=O)cc1
GI50 [1]: 70.1 µM (inactive) | GI50 [2]: > 10 µM (inactive) | GI50 [3]: > 100 µM (inactive) | GI50 [4]: > 100 µM (inactive) | GI50 [5]: > 100 µM (inactive) | GI50 [6]: > 100 µM (inactive) | GI50 [7]: > 100 µM (inactive) | GI50 [8]: > 100 µM (inactive) | GI50 [9]: > 100 µM (inactive) | GI50 [10]: > 100 µM (inactive) | GI50 [11]: > 100 µM (inactive) | GI50 [12]: > 100 µM (inactive) | GI50 [13]: 43.3 µM (inactive) | GI50 [14]: > 100 µM (inactive) | GI50 [15]: 39.4 µM (inactive) | GI50 [16]: > 100 µM (inactive) | GI50 [17]: > 100 µM (inactive) | GI50 [18]: > 100 µM (inactive) | GI50 [19]: > 100 µM (inactive) | GI50 [20]: > 100 µM (inactive)

C=C1C(=O)CC2C1CC(=O)/C(C)=C/CCC(C)(O)C2O (stereo not given)
GI50 [1]: 4.55 µM (inactive) | GI50 [2]: 3.44 µM (inactive) | GI50 [3]: 8.77 µM (inactive) | GI50 [4]: 3.86 µM (inactive) | GI50 [5]: 14.6 µM (inactive) | GI50 [6]: 5.47 µM (inactive) | GI50 [7]: > 25.2 µM (inactive) | GI50 [8]: 1.36 µM (inactive) | GI50 [9]: 8.17 µM (inactive) | GI50 [10]: 2.38 µM (inactive) | GI50 [11]: 10.9 µM (inactive) | GI50 [12]: 4.3 µM (inactive) | GI50 [13]: 27.4 µM (inactive) | GI50 [14]: 14.9 µM (inactive) | GI50 [15]: 0.986 µM (active) | GI50 [16]: 2.84 µM (inactive) | GI50 [17]: 7.91 µM (inactive) | GI50 [18]: 1.74 µM (inactive) | GI50 [19]: 0.562 µM (active) | GI50 [20]: 10.8 µM (inactive)

[N-]=[N+]=Nc1ccc2c(c1)Sc1ccccc1N2CCCCCl
GI50 [1]: > 100 µM (inactive) | GI50 [2]: 36.7 µM (inactive) | GI50 [3]: > 100 µM (inactive) | GI50 [4]: 30.2 µM (inactive) | GI50 [5]: 20.1 µM (inactive) | GI50 [6]: 36.8 µM (inactive) | GI50 [7]: > 100 µM (inactive) | GI50 [8]: 37.1 µM (inactive) | GI50 [9]: 41.8 µM (inactive) | GI50 [10]: 83.2 µM (inactive) | GI50 [11]: 80.4 µM (inactive) | GI50 [12]: 69.8 µM (inactive) | GI50 [13]: > 100 µM (inactive) | GI50 [14]: > 100 µM (inactive) | GI50 [15]: 13.5 µM (inactive) | GI50 [16]: > 100 µM (inactive) | GI50 [17]: 30.9 µM (inactive) | GI50 [18]: 44.7 µM (inactive) | GI50 [19]: > 100 µM (inactive) | GI50 [20]: 23.7 µM (inactive)

O=C(CC(c1ccccc1)N1CCCCC1)c1ccccc1 (stereo not given)
GI50 [1]: 11.2 µM (inactive) | GI50 [2]: 2.09 µM (inactive) | GI50 [3]: 15.1 µM (inactive) | GI50 [4]: 7.31 µM (inactive) | GI50 [5]: 13.8 µM (inactive) | GI50 [6]: 5.66 µM (inactive) | GI50 [7]: 21.5 µM (inactive) | GI50 [8]: 16 µM (inactive) | GI50 [9]: 16 µM (inactive) | GI50 [10]: 13 µM (inactive) | GI50 [11]: 18.4 µM (inactive) | GI50 [12]: 15.5 µM (inactive) | GI50 [13]: 16.5 µM (inactive) | GI50 [14]: 17.8 µM (inactive) | GI50 [15]: 19.8 µM (inactive) | GI50 [16]: 17.6 µM (inactive) | GI50 [17]: 1.7 µM (inactive) | GI50 [18]: 17.9 µM (inactive) | GI50 [19]: 14.2 µM (inactive) | GI50 [20]: 9.51 µM (inactive)

Nc1nc(Sc2ccc([N+](=O)[O-])cn2)c2nc[nH]c2n1
GI50 [1]: 5.74 µM (inactive) | GI50 [2]: 2.77 µM (inactive) | GI50 [3]: 3.32 µM (inactive) | GI50 [4]: 3.94 µM (inactive) | GI50 [5]: 4.86 µM (inactive) | GI50 [6]: 2.52 µM (inactive) | GI50 [7]: 3.16 µM (inactive) | GI50 [8]: 11.4 µM (inactive) | GI50 [9]: 8.05 µM (inactive) | GI50 [10]: 4.88 µM (inactive) | GI50 [11]: 9.18 µM (inactive) | GI50 [12]: 4.81 µM (inactive) | GI50 [13]: 9.46 µM (inactive) | GI50 [14]: 33.8 µM (inactive) | GI50 [15]: 2.47 µM (inactive) | GI50 [16]: 3.95 µM (inactive) | GI50 [17]: 3.46 µM (inactive) | GI50 [18]: 4.36 µM (inactive) | GI50 [19]: 9.08 µM (inactive) | GI50 [20]: 15.7 µM (inactive)

ONCCCn1cnc2c(NC3CC3)ncnc21
GI50 [1]: > 100 µM (inactive) | GI50 [2]: > 100 µM (inactive) | GI50 [3]: > 100 µM (inactive) | GI50 [4]: > 100 µM (inactive) | GI50 [5]: > 100 µM (inactive) | GI50 [6]: > 100 µM (inactive) | GI50 [7]: > 100 µM (inactive) | GI50 [8]: > 100 µM (inactive) | GI50 [9]: > 100 µM (inactive) | GI50 [10]: > 100 µM (inactive) | GI50 [11]: > 100 µM (inactive) | GI50 [12]: > 100 µM (inactive) | GI50 [13]: > 100 µM (inactive) | GI50 [14]: > 100 µM (inactive) | GI50 [15]: > 100 µM (inactive) | GI50 [16]: > 100 µM (inactive) | GI50 [17]: > 100 µM (inactive) | GI50 [18]: > 100 µM (inactive) | GI50 [19]: > 100 µM (inactive) | GI50 [20]: > 100 µM (inactive)

Cc1ccnc2[nH]c3ccccc3c(=O)c12
GI50 [1]: 41.2 µM (inactive) | GI50 [2]: 36.6 µM (inactive) | GI50 [3]: 30.2 µM (inactive) | GI50 [4]: 16.6 µM (inactive) | GI50 [5]: 15.7 µM (inactive) | GI50 [6]: 19.5 µM (inactive) | GI50 [7]: 26.8 µM (inactive) | GI50 [8]: 19.2 µM (inactive) | GI50 [9]: 22.9 µM (inactive) | GI50 [10]: 19 µM (inactive) | GI50 [11]: 29 µM (inactive) | GI50 [12]: 27 µM (inactive) | GI50 [13]: 35.5 µM (inactive) | GI50 [14]: 15.1 µM (inactive) | GI50 [15]: 25.2 µM (inactive) | GI50 [16]: 43.5 µM (inactive) | GI50 [17]: 11.5 µM (inactive) | GI50 [18]: 31.3 µM (inactive) | GI50 [19]: 10.1 µM (inactive) | GI50 [20]: > 10 µM (inactive)

O=c1oc2nc(-c3ccccc3)cc(C(F)(F)F)c2n1Cc1ccccc1
GI50 [1]: 5.43 µM (inactive) | GI50 [2]: 7.21 µM (inactive) | GI50 [3]: 11.3 µM (inactive) | GI50 [4]: 3.13 µM (inactive) | GI50 [5]: 3.8 µM (inactive) | GI50 [6]: 9.71 µM (inactive) | GI50 [7]: 4.33 µM (inactive) | GI50 [8]: 1.89 µM (inactive) | GI50 [9]: 6.14 µM (inactive) | GI50 [10]: > 100 µM (inactive) | GI50 [11]: 11.6 µM (inactive) | GI50 [12]: 42.4 µM (inactive) | GI50 [13]: 5.12 µM (inactive) | GI50 [14]: 50.1 µM (inactive) | GI50 [15]: 6.43 µM (inactive) | GI50 [16]: 7.8 µM (inactive) | GI50 [17]: 0.454 µM (active) | GI50 [18]: 3.24 µM (inactive) | GI50 [19]: 46.6 µM (inactive) | GI50 [20]: 4.8 µM (inactive)

Cc1ccc(C(=O)CC(O)(C(F)(F)F)C(F)(F)F)cc1[N+](=O)[O-]
GI50 [1]: 12.1 µM (inactive) | GI50 [2]: 4.63 µM (inactive) | GI50 [3]: 6.22 µM (inactive) | GI50 [4]: 5.3 µM (inactive) | GI50 [5]: 1.87 µM (inactive) | GI50 [6]: 2.07 µM (inactive) | GI50 [7]: 6.59 µM (inactive) | GI50 [8]: 16.3 µM (inactive) | GI50 [9]: 9.29 µM (inactive) | GI50 [10]: 5.78 µM (inactive) | GI50 [11]: 15.8 µM (inactive) | GI50 [12]: 10.2 µM (inactive) | GI50 [13]: 7 µM (inactive) | GI50 [14]: 8.15 µM (inactive) | GI50 [15]: 13.7 µM (inactive) | GI50 [16]: 18.1 µM (inactive) | GI50 [17]: 5.73 µM (inactive) | GI50 [18]: 13.5 µM (inactive) | GI50 [19]: 17.6 µM (inactive) | GI50 [20]: 14.2 µM (inactive)
